In PMC10408569, “Recruitment of hexahydroquinoline as anticancer scaffold targeting inhibition of wild and mutants EGFR (EGFR^WT, EGFR^T790M, and EGFR^L858R)” (Journal of Enzyme Inhibition and Medicinal Chemistry, 2023):

Key:
[1] = system: HL-60(TB); assay: NCI-60 anticancer screening (SRB); format: cell-based; details: Homo sapiens, leukemia, one dose 10 μM, read-out: Growth Inhibition Percentage (GI %)
[2] = system: K-562; assay: NCI-60 anticancer screening (SRB); format: cell-based; details: Homo sapiens, K562; K-562, leukemia; one dose 10 μM; read-out: Growth Inhibition Percentage (GI %)
[3] = system: MOLT-4; assay: NCI-60 anticancer screening (SRB); format: cell-based; details: Homo sapiens; MOLT-4, leukemia; one dose 10 μM; read-out: Growth Inhibition Percentage (GI %)
[4] = system: SR; assay: NCI-60 anticancer screening (SRB); format: cell-based; details: Homo sapiens, leukemia, one dose 10 μM, read-out: Growth Inhibition Percentage (GI %)
[5] = system: A549/ATCC; assay: NCI-60 anticancer screening (SRB); format: cell-based; details: Homo sapiens; A549/ATCC, NSC lung cancer; one dose 10 μM; read-out: Growth Inhibition Percentage (GI %)
[6] = system: EKVX; assay: NCI-60 anticancer screening (SRB); format: cell-based; details: Homo sapiens, NSC lung cancer, one dose 10 μM, read-out: Growth Inhibition Percentage (GI %)
[7] = system: HOP-62; assay: NCI-60 anticancer screening (SRB); format: cell-based; details: Homo sapiens; HOP-62, NSC lung cancer; one dose 10 μM; read-out: Growth Inhibition Percentage (GI %)
[8] = system: HOP-92; assay: NCI-60 anticancer screening (SRB); format: cell-based; details: Homo sapiens; HOP-92, NSC lung cancer; one dose 10 μM; read-out: Growth Inhibition Percentage (GI %)
[9] = system: NCI-H460; assay: NCI-60 anticancer screening (SRB); format: cell-based; details: Homo sapiens; NCI-H460, NSC lung cancer; one dose 10 μM; read-out: Growth Inhibition Percentage (GI %)
[10] = system: HCT-15; assay: NCI-60 anticancer screening (SRB); format: cell-based; details: Homo sapiens; HCT-15, colon cancer; one dose 10 μM; read-out: Growth Inhibition Percentage (GI %)
[11] = system: HT29; assay: NCI-60 anticancer screening (SRB); format: cell-based; details: Homo sapiens, HT-29; HT29, colon cancer; one dose 10 μM; read-out: Growth Inhibition Percentage (GI %)
[12] = system: KM 12; assay: NCI-60 anticancer screening (SRB); format: cell-based; details: Homo sapiens, KM12; KM 12, colon cancer; one dose 10 μM; read-out: Growth Inhibition Percentage (GI %)
[13] = system: SW-620; assay: NCI-60 anticancer screening (SRB); format: cell-based; details: Homo sapiens; SW-620, colon cancer; one dose 10 μM; read-out: Growth Inhibition Percentage (GI %)
[14] = system: SNB-75; assay: NCI-60 anticancer screening (SRB); format: cell-based; details: Homo sapiens; SNB-75, CNS cancer; one dose 10 μM; read-out: Growth Inhibition Percentage (GI %)
[15] = system: MALME-3M; assay: NCI-60 anticancer screening (SRB); format: cell-based; details: Homo sapiens, melanoma, one dose 10 μM, read-out: Growth Inhibition Percentage (GI %)
[16] = system: M14; assay: NCI-60 anticancer screening (SRB); format: cell-based; details: Homo sapiens; M14, melanoma; one dose 10 μM; read-out: Growth Inhibition Percentage (GI %)
[17] = system: MDA-MB-435; assay: NCI-60 anticancer screening (SRB); format: cell-based; details: Homo sapiens; MDA-MB-435, melanoma; one dose 10 μM; read-out: Growth Inhibition Percentage (GI %)
[18] = system: SK-MEL-28; assay: NCI-60 anticancer screening (SRB); format: cell-based; details: Homo sapiens; SK-MEL-28, melanoma; one dose 10 μM; read-out: Growth Inhibition Percentage (GI %)
[19] = system: SK-MEL-5; assay: NCI-60 anticancer screening (SRB); format: cell-based; details: Homo sapiens; SK-MEL-5, melanoma; one dose 10 μM; read-out: Growth Inhibition Percentage (GI %)
[20] = system: UACC-257; assay: NCI-60 anticancer screening (SRB); format: cell-based; details: Homo sapiens; UACC-257, melanoma; one dose 10 μM; read-out: Growth Inhibition Percentage (GI %)
[21] = system: UACC-62; assay: NCI-60 anticancer screening (SRB); format: cell-based; details: Homo sapiens; UACC-62, melanoma; one dose 10 μM; read-out: Growth Inhibition Percentage (GI %)
[22] = system: IGROV1; assay: NCI-60 anticancer screening (SRB); format: cell-based; details: Homo sapiens, IGROV-1; IGROV1, ovarian cancer; one dose 10 μM; read-out: Growth Inhibition Percentage (GI %)
[23] = system: OVCAR-4; assay: NCI-60 anticancer screening (SRB); format: cell-based; details: Homo sapiens; OVCAR-4, ovarian cancer; one dose 10 μM; read-out: Growth Inhibition Percentage (GI %)
[24] = system: OVCAR-8; assay: NCI-60 anticancer screening (SRB); format: cell-based; details: Homo sapiens; OVCAR-8, ovarian cancer; one dose 10 μM; read-out: Growth Inhibition Percentage (GI %)
[25] = system: SK-OV-3; assay: NCI-60 anticancer screening (SRB); format: cell-based; details: Homo sapiens; SK-OV-3, ovarian cancer; one dose 10 μM; read-out: Growth Inhibition Percentage (GI %)
[26] = system: 786-0; assay: NCI-60 anticancer screening (SRB); format: cell-based; details: Homo sapiens; 786-0, renal cancer; one dose 10 μM; read-out: Growth Inhibition Percentage (GI %)
[27] = system: A498; assay: NCI-60 anticancer screening (SRB); format: cell-based; details: Homo sapiens; A498, renal cancer; one dose 10 μM; read-out: Growth Inhibition Percentage (GI %)
[28] = system: CAKI-1; assay: NCI-60 anticancer screening (SRB); format: cell-based; details: Homo sapiens; CAKI-1, renal cancer; one dose 10 μM; read-out: Growth Inhibition Percentage (GI %)
[29] = system: PC-3; assay: NCI-60 anticancer screening (SRB); format: cell-based; details: Homo sapiens; PC-3, prostate cancer; one dose 10 μM; read-out: Growth Inhibition Percentage (GI %)
[30] = system: MDA-MB-231; assay: NCI-60 anticancer screening (SRB); format: cell-based; details: Homo sapiens; MDA-MB-231, breast cancer; one dose 10 μM; read-out: Growth Inhibition Percentage (GI %)
[31] = system: T-47D; assay: NCI-60 anticancer screening (SRB); format: cell-based; details: Homo sapiens, T47D, breast cancer, one dose 10 μM, read-out: Growth Inhibition Percentage (GI %)
[32] = system: NCI 60 cancer cell lines; assay: NCI-60 anticancer screening (SRB), whole panel; format: cell-based, human; details: mean across the NCI-60 panel; one dose 10 μM

| Structure (SMILES) | inhibition at 10 µM [1] | inhibition at 10 µM [2] | inhibition at 10 µM [3] | inhibition at 10 µM [4] | inhibition at 10 µM [5] | inhibition at 10 µM [6] | inhibition at 10 µM [7] | inhibition at 10 µM [8] | inhibition at 10 µM [9] | inhibition at 10 µM [10] | inhibition at 10 µM [11] | inhibition at 10 µM [12] | inhibition at 10 µM [13] | inhibition at 10 µM [14] | inhibition at 10 µM [15] | inhibition at 10 µM [16] | inhibition at 10 µM [17] | inhibition at 10 µM [18] | inhibition at 10 µM [19] | inhibition at 10 µM [20] | further results |
| --- | --- | --- | --- | --- | --- | --- | --- | --- | --- | --- | --- | --- | --- | --- | --- | --- | --- | --- | --- | --- | --- |
| CCOC(=O)C1=C(N)N(c2ccc(Cl)cc2)C2=C(C(=O)CC(C)(C)C2)C1c1ccc(N2CCOCC2)cc1 (racemic) [8m, (±)-Ethyl 2-amino-1–(4-chlorophenyl)-7,7-dimethyl-4-[4-(morpholin-4-yl)phenyl]-5-oxo-1,4,5,6,7,8-hexahydroquinoline-3-carboxylate] | < 10% | < 10% | < 10% | < 10% | < 10% | 25% | < 10% | < 10% | < 10% | < 10% | < 10% | < 10% | < 10% | < 10% | < 10% | < 10% | < 10% | < 10% | 20% | < 10% | inhibition at 10 µM [21]: 17%; inhibition at 10 µM [22]: < 10%; inhibition at 10 µM [23]: < 10%; inhibition at 10 µM [24]: < 10%; inhibition at 10 µM [25]: < 10%; inhibition at 10 µM [26]: 11%; inhibition at 10 µM [27]: < 10%; inhibition at 10 µM [28]: 13%; inhibition at 10 µM [29]: < 10%; inhibition at 10 µM [30]: 13%; inhibition at 10 µM [31]: < 10%; GI % mean [32]: - ((-) = GI % mean less than 10); melting point: 175 to 177 °C |
| CCOC(=O)C1=C(N)N(c2ccccc2)C2=C(C(=O)CC(C)(C)C2)C1c1cccc(Cl)c1Cl (racemic) [10a, (±)-Ethyl 2-amino-4–(2,3-dichlorophenyl)-7,7-dimethyl-5-oxo-1-phenyl-1,4,5,6,7,8-hexahydroquinoline-3-carboxylate] | 54% | 40% | 60% | 44% | 39% | 42% | 59% | 101% | 39% | 34% | 27% | 23% | < 10% | 43% | 19% | 12% | 13% | < 10% | 22% | 15% | inhibition at 10 µM [21]: 44%; inhibition at 10 µM [22]: 16%; inhibition at 10 µM [23]: 34%; inhibition at 10 µM [24]: 41%; inhibition at 10 µM [25]: 18%; inhibition at 10 µM [26]: 42%; inhibition at 10 µM [27]: < 10%; inhibition at 10 µM [28]: 53%; inhibition at 10 µM [29]: 65%; inhibition at 10 µM [30]: 40%; inhibition at 10 µM [31]: 28%; GI % mean [32]: 35%; melting point: 235 to 237 °C |
| CCOC(=O)C1=C(N)N(c2ccc(Cl)cc2)C2=C(C(=O)CC(C)(C)C2)C1c1cccc(Cl)c1Cl (racemic) [10b, (±)-Ethyl 2-amino-1–(4-chorophenyl)-4–(2,3-dichlorophenyl)-7,7-dimethyl-5-oxo-1-phenyl-1,4,5,6,7,8-hexahydroquinoline-3-carboxylate] | 77% | 71% | 70% | 66% | 34% | 58% | 16% | 30% | 53% | 62% | 32% | 49% | < 10% | 22% | 20% | 16% | 25% | 16% | 40% | 44% | inhibition at 10 µM [21]: 34%; inhibition at 10 µM [22]: < 10%; inhibition at 10 µM [23]: 28%; inhibition at 10 µM [24]: 25%; inhibition at 10 µM [25]: 13%; inhibition at 10 µM [26]: 22%; inhibition at 10 µM [27]: < 10%; inhibition at 10 µM [28]: 53%; inhibition at 10 µM [29]: 76%; inhibition at 10 µM [30]: 33%; inhibition at 10 µM [31]: 41%; GI % mean [32]: 36%; melting point: 250 to 252 °C |
| CCOC(=O)C1=C(N)N(c2ccccc2)C2=C(C(=O)CC(C)(C)C2)C1c1ccccn1 (racemic) [12a, (±)-Ethyl 2-amino-7,7-dimethyl-5-oxo-1-phenyl-4-(pyridin-2-yl)-1,4,5,6,7,8-hexahydroquinoline-3-carboxylate] | < 10% | < 10% | < 10% | 16% | < 10% | < 10% | < 10% | < 10% | < 10% | < 10% | < 10% | < 10% | < 10% | 19% | < 10% | < 10% | < 10% | < 10% | < 10% | < 10% | inhibition at 10 µM [21]: < 10%; inhibition at 10 µM [22]: < 10%; inhibition at 10 µM [23]: < 10%; inhibition at 10 µM [24]: < 10%; inhibition at 10 µM [25]: < 10%; inhibition at 10 µM [26]: < 10%; inhibition at 10 µM [27]: < 10%; inhibition at 10 µM [28]: < 10%; inhibition at 10 µM [29]: < 10%; inhibition at 10 µM [30]: < 10%; inhibition at 10 µM [31]: < 10%; GI % mean [32]: - ((-) = GI % mean less than 10); melting point: 158 to 160 °C |
